Reference: PubChem BioAssay (NCI)
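Values below derive from 48-hour exposures of cells grown in 96-well plates, with endpoints linearly interpolated between the two concentrations bracketing the appropriate inhibition level. GI50 is the concentration that inhibits growth by half. TGI denotes the concentration required for complete inhibition of growth.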

Key:
Test in all cases: NCI-60 cell line screen, 48 h
[1] = tested on: 786-0 renal
[2] = tested on: A549 NSCLC
[3] = tested on: ACHN renal
[4] = tested on: CAKI-1 renal
[5] = tested on: CCRF-CEM leukemia
[6] = tested on: COLO 205 colon
[7] = tested on: DU-145 prostate
[8] = tested on: EKVX NSCLC
[9] = tested on: HCC-2998 colon
[10] = tested on: HCT-116 colon
[11] = tested on: HCT-15 colon
[12] = tested on: HL-60(TB) leukemia
[13] = tested on: HOP-62 NSCLC
[14] = tested on: HOP-92 NSCLC
[15] = tested on: HS 578T breast
[16] = tested on: HT29 colon
[17] = tested on: IGROV1 ovarian
[18] = tested on: K-562 leukemia
[19] = tested on: KM12 colon
[20] = tested on: M14 melanoma
[21] = tested on: MALME-3M melanoma
[22] = tested on: MCF7 breast
[23] = tested on: MDA-MB-435
[24] = tested on: MOLT-4 leukemia
[25] = tested on: NCI-H23 lung
[26] = tested on: NCI-H460 lung
[27] = tested on: NCI-H522 lung
[28] = tested on: NCI/ADR-RES ovarian
[29] = tested on: OVCAR-3 ovarian
[30] = tested on: OVCAR-4 ovarian
[31] = tested on: OVCAR-5 ovarian
[32] = tested on: OVCAR-8 ovarian
[33] = tested on: PC-3 prostate
[34] = tested on: RXF 393 renal
[35] = tested on: SF-268 CNS
[36] = tested on: SF-295 CNS
[37] = tested on: SF-539 CNS
[38] = tested on: SK-MEL-2 melanoma
[39] = tested on: SK-MEL-28 melanoma
[40] = tested on: SK-MEL-5 melanoma
[41] = tested on: SK-OV-3 ovarian
[42] = tested on: SN12C renal
[43] = tested on: SNB-19 CNS
[44] = tested on: SNB-75 CNS
[45] = tested on: SR leukemia
[46] = tested on: SW-620 colon
[47] = tested on: T-47D breast
[48] = tested on: TK-10 renal
[49] = tested on: U251 CNS
[50] = tested on: UACC-257 melanoma
[51] = tested on: UACC-62 melanoma
[52] = tested on: UO-31 renal
[53] = tested on: LOX IMVI melanoma
[54] = tested on: MDA-MB-231 breast

**Q.** For `CSC(=NC#N)S/C=C/C(=O)c1ccc(Cl)cc1`, which TGI [1] is on record?
**A.** 40.8 µM

**Q.** What about the TGI [2] of the same molecule?
**A.** > 100 µM

**Q.** And the TGI [3]?
**A.** > 100 µM

**Q.** What about the TGI [4] of the same molecule?
**A.** 35.6 µM

**Q.** What about the TGI [5] of the same molecule?
**A.** > 100 µM

**Q.** And the TGI [6]?
**A.** 71.6 µM

**Q.** What about the TGI [7] of the same molecule?
**A.** > 100 µM

**Q.** What about the TGI [8] of the same molecule?
**A.** > 100 µM

**Q.** And the TGI [9]?
**A.** > 100 µM

**Q.** And the TGI [10]?
**A.** 34.5 µM

**Q.** And the TGI [11]?
**A.** > 100 µM

**Q.** What about the TGI [12] of the same molecule?
**A.** > 100 µM

**Q.** What about the TGI [13] of the same molecule?
**A.** > 100 µM

**Q.** What about the TGI [14] of the same molecule?
**A.** > 100 µM

**Q.** What about the TGI [15] of the same molecule?
**A.** 75.9 µM

**Q.** And the TGI [16]?
**A.** 46.4 µM

**Q.** What about the TGI [17] of the same molecule?
**A.** 44.2 µM

**Q.** What about the TGI [18] of the same molecule?
**A.** > 100 µM

**Q.** And the TGI [19]?
**A.** > 100 µM

**Q.** What about the TGI [20] of the same molecule?
**A.** 45.1 µM

**Q.** And the TGI [21]?
**A.** 55.5 µM

**Q.** And the TGI [22]?
**A.** 79.3 µM

**Q.** And the TGI [23]?
**A.** 64.3 µM

**Q.** And the TGI [24]?
**A.** > 100 µM

**Q.** What about the TGI [25] of the same molecule?
**A.** 52.4 µM

**Q.** What about the TGI [26] of the same molecule?
**A.** > 100 µM

**Q.** And the TGI [27]?
**A.** 38.5 µM

**Q.** And the TGI [28]?
**A.** 63.1 µM

**Q.** And the TGI [29]?
**A.** 34.7 µM

**Q.** What about the TGI [30] of the same molecule?
**A.** > 100 µM

**Q.** What about the TGI [31] of the same molecule?
**A.** 99.8 µM

**Q.** What about the TGI [32] of the same molecule?
**A.** 47.4 µM

**Q.** And the TGI [33]?
**A.** > 100 µM

**Q.** And the TGI [34]?
**A.** 42.4 µM

**Q.** What about the TGI [35] of the same molecule?
**A.** 62.2 µM

**Q.** And the TGI [36]?
**A.** 95.5 µM

**Q.** And the TGI [37]?
**A.** 52.3 µM

**Q.** What about the TGI [38] of the same molecule?
**A.** 45 µM

**Q.** What about the TGI [39] of the same molecule?
**A.** 46.5 µM

**Q.** What about the TGI [40] of the same molecule?
**A.** 32.7 µM

**Q.** And the TGI [41]?
**A.** > 100 µM

**Q.** And the TGI [42]?
**A.** 84.7 µM

**Q.** And the TGI [43]?
**A.** > 100 µM

**Q.** And the TGI [44]?
**A.** > 100 µM

**Q.** And the TGI [45]?
**A.** 12.6 µM

**Q.** And the TGI [46]?
**A.** 40.6 µM

**Q.** And the TGI [47]?
**A.** 75.1 µM

**Q.** What about the TGI [48] of the same molecule?
**A.** 58.5 µM

**Q.** What about the TGI [49] of the same molecule?
**A.** > 100 µM

**Q.** And the TGI [50]?
**A.** 52.2 µM

**Q.** What about the TGI [51] of the same molecule?
**A.** 74.4 µM

**Q.** What about the TGI [52] of the same molecule?
**A.** 45.4 µM

**Q.** What does the source list for `CCC(=O)OC1CCC2C3CCC(=O)OC3C(C)(CCC(=O)O)CC12C` (stereo not drawn)?
**A.** GI50 [1]: 5.49 µM; TGI [1]: > 100 µM; GI50 [2]: 3.81 µM; TGI [2]: > 100 µM; GI50 [3]: 4.74 µM; TGI [3]: > 100 µM; GI50 [4]: 3.22 µM; TGI [4]: 15.9 µM; GI50 [5]: 0.374 µM; TGI [5]: > 100 µM; GI50 [6]: 3.48 µM; TGI [6]: 69.1 µM; GI50 [7]: 3.59 µM; TGI [7]: 19.1 µM; GI50 [8]: 2.08 µM; TGI [8]: > 100 µM; GI50 [9]: 3.53 µM; TGI [9]: > 100 µM; GI50 [10]: 3.62 µM; TGI [10]: > 100 µM; GI50 [11]: 2.83 µM; TGI [11]: > 100 µM; GI50 [13]: 7.49 µM; TGI [13]: > 100 µM; GI50 [14]: 0.997 µM; TGI [14]: 4.76 µM; GI50 [15]: 1.63 µM; TGI [15]: 7.93 µM; GI50 [16]: 3.86 µM; TGI [16]: > 100 µM; GI50 [17]: 2.47 µM; TGI [17]: 16.2 µM; GI50 [19]: 2.59 µM; TGI [19]: > 100 µM; GI50 [53]: 3.87 µM; TGI [53]: > 100 µM; GI50 [20]: 3.59 µM; TGI [20]: > 100 µM; GI50 [21]: 2.76 µM; TGI [21]: > 100 µM; GI50 [22]: 1.61 µM; TGI [22]: > 100 µM; GI50 [54]: 1.45 µM; TGI [54]: 6.28 µM; GI50 [23]: 2.24 µM; TGI [23]: 13.2 µM; GI50 [25]: 3.35 µM; TGI [25]: > 100 µM; GI50 [26]: 2.04 µM; TGI [26]: > 100 µM; GI50 [27]: 2.08 µM; TGI [27]: > 100 µM; GI50 [28]: 2.54 µM; TGI [28]: > 100 µM; GI50 [29]: 2.16 µM; TGI [29]: 10.5 µM; GI50 [30]: 6.61 µM; TGI [30]: > 100 µM; GI50 [31]: 5.6 µM; TGI [31]: > 100 µM; GI50 [32]: 3.49 µM; TGI [32]: > 100 µM; GI50 [33]: 2.36 µM; TGI [33]: > 100 µM; GI50 [34]: 0.617 µM; TGI [34]: > 100 µM; GI50 [35]: 3.6 µM; TGI [35]: > 100 µM; GI50 [36]: 1.16 µM; TGI [36]: 2.68 µM; GI50 [37]: 2.1 µM; TGI [37]: 17.4 µM; GI50 [38]: 1.86 µM; TGI [38]: > 100 µM; GI50 [39]: 3.81 µM; TGI [39]: > 100 µM; GI50 [40]: 3.9 µM; TGI [40]: > 100 µM; GI50 [41]: 2.47 µM; TGI [41]: > 100 µM; GI50 [44]: 2.87 µM; TGI [44]: > 100 µM; GI50 [46]: 2.87 µM; TGI [46]: > 100 µM; GI50 [47]: 0.929 µM; TGI [47]: 6.16 µM; GI50 [48]: 3.46 µM; TGI [48]: 21.9 µM; GI50 [49]: 3.11 µM; TGI [49]: 45.3 µM; GI50 [50]: 5.73 µM; TGI [50]: > 100 µM; GI50 [51]: 3 µM; TGI [51]: > 100 µM; GI50 [52]: 0.494 µM; TGI [52]: > 100 µM
